The values below come from ChEMBL document CHEMBL1201862, “PubChem BioAssay data set” (2004).

Some test systems named below: TK-10; Malme-3M; SK-OV-3; DU-145; SW-620; A549; ACHN; RXF 393; M14; SR; EKVX; HOP-62; SK-MEL-28; NCI-H226; UACC-257; K562; A498; OVCAR-8; NCI-H460.
Holding throughout (assay): NCI tumour cell line growth inhibition, 48 h

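Compound exposure: 48 hours, 5 concentrations, 96-well plates. Abbreviation: GI50, concentration required for 50% inhibition of growth.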 Activity calls are given as the source filed them. Cut-off read from the data, not from the text of the source: active = GI50 up to about 1.1 µM and inactive = higher.

Take `CCC1c2[nH]c3ccccc3c2C[C@H]2C(=O)NC(Cc3c[nH]c4ccccc34)C(=O)N12` (some centres not stated): the GI50 in the assay on TK-10 was 23.2 µM (inactive); with Malme-3M it was 18.4 µM (inactive); in the assay with SK-OV-3 it was 34 µM (inactive); with DU-145, 37.7 µM (inactive); with SW-620, 38.5 µM (inactive); with A549, 28 µM (inactive). For the same compound, the GI50 in the assay on ACHN was 29.4 µM (inactive); with RXF 393, 17.4 µM (inactive); in the assay on M14, 21.5 µM (inactive); in the assay with SR, 16.9 µM (inactive); in the assay with EKVX, 32 µM (inactive); in the assay with HOP-62 it was 24 µM (inactive). Further, the GI50 in the assay on SK-MEL-28 was 33.9 µM (inactive); with NCI-H226, 32.7 µM (inactive); in the assay on UACC-257, 19.4 µM (inactive); with K562, 27.6 µM (inactive); in the assay on A498, 30.5 µM (inactive); with OVCAR-8, 32.7 µM (inactive).
Turning to `COc1cc(/C=C\c2nnc(/C=C\c3ccc(O)c(OC)c3)s2)ccc1O`, the GI50 in the assay on NCI-H460 was 3.09 µM (inactive); in the assay with TK-10 it was 4.89 µM (inactive); in the assay on Malme-3M, 2.11 µM (inactive); with SK-OV-3, 4.41 µM (inactive); in the assay on DU-145, 2.32 µM (inactive); in the assay on SW-620, 1.74 µM (inactive). Moreover, the GI50 with A549 was 3.13 µM (inactive); in the assay on ACHN, 3.61 µM (inactive); with RXF 393 it was 1.16 µM (inactive); in the assay with M14, 2.11 µM (inactive); in the assay on SR, 1.24 µM (inactive); in the assay with EKVX, 3.74 µM (inactive). Further, the GI50 in the assay on HOP-62 is 5.65 µM (inactive); in the assay with SK-MEL-28, 5.35 µM (inactive); with NCI-H226, 7.28 µM (inactive); in the assay with UACC-257, 2.16 µM (inactive); in the assay on K562 it was 1.77 µM (inactive); in the assay with A498, 2.27 µM (inactive). In addition, the GI50 with OVCAR-8 is 3.78 µM (inactive).
Regarding `CCN(CC)c1ccc2cc(C(=O)NCc3ccccc3)c(=N)oc2c1`, the GI50 with NCI-H460 was 28.2 µM (inactive); in the assay on TK-10, 14.4 µM (inactive); in the assay on Malme-3M, 15.2 µM (inactive); in the assay with SK-OV-3, 56.8 µM (inactive); in the assay with DU-145 it was 35 µM (inactive); in the assay on SW-620, 6.01 µM (inactive). In addition, the GI50 was 42.1 µM (inactive) in the assay on A549; 5.43 µM (inactive) with ACHN; 47.5 µM (inactive) in the assay with RXF 393; 11.1 µM (inactive) with M14; > 42.6 µM (inactive) in the assay on SR; 13.7 µM (inactive) in the assay with EKVX. In addition, the GI50 with HOP-62 was 59.8 µM (inactive); in the assay on SK-MEL-28, 66.2 µM (inactive); in the assay on NCI-H226 it was > 89.5 µM (inactive); in the assay on UACC-257 it was 20.4 µM (inactive); in the assay on K562 it was 3.86 µM (inactive); in the assay on A498, > 100 µM (inactive). For the same compound, the GI50 with OVCAR-8 was 37.7 µM (inactive).
On to `COc1cc(-c2cc(OC)c(OC)c3ccc(Br)cc23)c2cc(Br)ccc2c1OC`, for which the GI50 in the assay with NCI-H460 was 41.7 µM (inactive); with TK-10, 31.1 µM (inactive); in the assay with Malme-3M it was 24.1 µM (inactive); with SK-OV-3, 30.8 µM (inactive); in the assay on DU-145, 29 µM (inactive); in the assay with SW-620, 80.5 µM (inactive). For the same compound, the GI50 is 20.3 µM (inactive) in the assay on A549; 22.1 µM (inactive) with ACHN; 15.1 µM (inactive) with RXF 393; 23.2 µM (inactive) with M14; 34.4 µM (inactive) in the assay on SR; 85.9 µM (inactive) with EKVX. Further, the GI50 is 21.6 µM (inactive) in the assay with HOP-62; 20.1 µM (inactive) in the assay with SK-MEL-28; 23.3 µM (inactive) with NCI-H226; 46.1 µM (inactive) in the assay with UACC-257; 22.4 µM (inactive) with K562; 23.8 µM (inactive) in the assay with A498.
On to `N#CC(C#N)=C1CCCS(=O)(=O)c2ccccc21`, for which the GI50 in the assay on NCI-H460, with TK-10, in the assay on SK-OV-3, in the assay on DU-145, in the assay with SW-620 and in the assay on A549 was > 100 µM (inactive) throughout. For the same compound, the GI50 in the assay with ACHN, in the assay on RXF 393, with M14, in the assay with SR, in the assay with EKVX and in the assay on HOP-62 was > 100 µM (inactive) in each case. Further, the GI50 with SK-MEL-28 was > 100 µM (inactive); in the assay on NCI-H226, > 100 µM (inactive); in the assay on UACC-257 it was > 100 µM (inactive); with K562, > 100 µM (inactive); in the assay on A498, 56.4 µM (inactive); in the assay on OVCAR-8 it was > 100 µM (inactive).
As to `CN(/N=C\c1ccc2ccccc2c1)C1=NCCCN1`, the GI50 in the assay on NCI-H460 is 4.7 µM (inactive); in the assay with TK-10, 14 µM (inactive); in the assay with Malme-3M, 13.3 µM (inactive); with SK-OV-3, 19.1 µM (inactive); in the assay on DU-145, 27.4 µM (inactive); in the assay with SW-620, 12.1 µM (inactive). Further, the GI50 with A549 was 8.18 µM (inactive); in the assay with ACHN, 13.3 µM (inactive); in the assay with RXF 393, 14.3 µM (inactive); with SR it was 13.1 µM (inactive); with EKVX, 17.3 µM (inactive); in the assay on HOP-62, 12.1 µM (inactive). For the same compound, the GI50 with SK-MEL-28 is 14.6 µM (inactive); with NCI-H226, 17 µM (inactive); in the assay with UACC-257 it was 10.4 µM (inactive); with K562, 11.7 µM (inactive); with A498, 13.6 µM (inactive); in the assay with OVCAR-8, 15.4 µM (inactive).
For `Cc1cc2nc(N)n[n+]([O-])c2cc1C`, the GI50 in the assay on TK-10, with Malme-3M, in the assay on SK-OV-3, with DU-145, in the assay on SW-620 and in the assay on A549 was > 100 µM (inactive) in each case. Besides, the GI50 with ACHN, in the assay with RXF 393, in the assay with M14, in the assay with SR, in the assay with EKVX and in the assay on HOP-62 was > 100 µM (inactive) in each case. The GI50 in the assay with SK-MEL-28, with NCI-H226, with UACC-257, in the assay with K562, in the assay on A498 and in the assay with OVCAR-8 was > 100 µM (inactive) each time.
Consider `CN(C)N1C(=C(C#N)C#N)C(c2ccccc2)CC1C#N` (configuration not stated), for which the GI50 with TK-10, with Malme-3M, with SK-OV-3, with DU-145, in the assay with SW-620 and in the assay with A549 was > 100 µM (inactive) in each case. The GI50 is > 100 µM (inactive) in the assay on ACHN; > 100 µM (inactive) with RXF 393; > 100 µM (inactive) with M14; > 10 µM (inactive) in the assay with SR; > 100 µM (inactive) with EKVX; > 100 µM (inactive) with HOP-62. Moreover, the GI50 in the assay with SK-MEL-28, in the assay with NCI-H226, with UACC-257, with K562, in the assay on A498 and in the assay with OVCAR-8 was > 100 µM (inactive) in each case.
For `C=C1C(=O)O[C@H]2/C=C(/C)C3=CC(=O)[C@@](C)(C[C@@H](OC(=O)/C(C)=C\C)C12)O3` (some centres not stated), the GI50 in the assay on NCI-H460 was 2.35 µM (inactive); with SK-OV-3, 12.2 µM (inactive); with DU-145 it was 2.58 µM (inactive); in the assay on SW-620, 0.128 µM (active); in the assay with A549, 4.05 µM (inactive); in the assay on ACHN, 0.232 µM (active). In addition, the GI50 with RXF 393 is 0.265 µM (active); in the assay on M14, 1.85 µM (inactive); in the assay with SR, 0.083 µM (active); with HOP-62, 9.4 µM (inactive); in the assay on SK-MEL-28, 0.708 µM (active); in the assay on NCI-H226, 2.59 µM (inactive). Also, the GI50 was 1.73 µM (inactive) in the assay with UACC-257, 0.154 µM (active) in the assay on K562, 5.2 µM (inactive) in the assay with A498 and 0.863 µM (active) in the assay on OVCAR-8.
As to `Cc1cc(N(CCC#N)CCC#N)ccc1C(/N=N\c1ccc([N+](=O)[O-])cc1)=N\NC(=O)c1cc(Cl)ccc1O`, the GI50 is 25.1 µM (inactive) with NCI-H460; 46.1 µM (inactive) in the assay with TK-10; 28.1 µM (inactive) in the assay with Malme-3M; 50.7 µM (inactive) in the assay with SK-OV-3; 46.3 µM (inactive) in the assay on DU-145; 38.6 µM (inactive) in the assay on A549. In addition, the GI50 with ACHN is 27.8 µM (inactive); with RXF 393 it was 28.6 µM (inactive); in the assay with M14 it was 42 µM (inactive); in the assay on SR it was 24.3 µM (inactive); in the assay with EKVX it was 24.3 µM (inactive); with HOP-62, 26.2 µM (inactive). The GI50 in the assay on NCI-H226 was 25.5 µM (inactive); with UACC-257, 34 µM (inactive); in the assay with K562, 35.2 µM (inactive); in the assay with A498, 26.7 µM (inactive); with OVCAR-8, 19.8 µM (inactive).
Turning to `Cc1ccc(C2=CC(=O)OC(C[P+](c3ccccc3)(c3ccccc3)c3ccccc3)(c3ccccc3)O2)cc1` (configuration not stated), the GI50 is 17.8 µM (inactive) with NCI-H460; 20.1 µM (inactive) with TK-10; 16.1 µM (inactive) with Malme-3M; 18.2 µM (inactive) in the assay with SK-OV-3; 16.5 µM (inactive) in the assay with DU-145; 15.8 µM (inactive) in the assay with A549. The GI50 is 21.3 µM (inactive) in the assay on ACHN; 16.7 µM (inactive) with RXF 393; 17 µM (inactive) in the assay on M14; 15.6 µM (inactive) with SR; 15.3 µM (inactive) with EKVX; 19.5 µM (inactive) with HOP-62. Further, the GI50 is 19 µM (inactive) in the assay on SK-MEL-28; 27.1 µM (inactive) in the assay on NCI-H226; 16.9 µM (inactive) with UACC-257; 23.3 µM (inactive) in the assay with K562; 15.1 µM (inactive) in the assay with A498; 24.5 µM (inactive) in the assay on OVCAR-8.
